# Assay results as given in PubChem BioAssay (NCI).
#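 GI50 marks 50% less growth. The concentration for full growth arrest is given as TGI.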
# How the values were obtained:
# Assay in all cases: DTP human tumour cell line panel, 384-well format
# MDA-MB-468 breast = system: MDA-MB-468 breast
# OVCAR-4 ovarian = system: OVCAR-4 ovarian
# RXF 393 renal = system: RXF 393 renal
# HT29 colon = system: HT29 colon
# T-47D breast = system: T-47D breast
# RPMI-8226 leukemia = system: RPMI-8226 leukemia
# HCT-15 colon = system: HCT-15 colon
# HOP-92 NSCLC = system: HOP-92 NSCLC
# UO-31 renal = system: UO-31 renal
# SNB-19 CNS = system: SNB-19 CNS
# NCI/ADR-RES ovarian = system: NCI/ADR-RES ovarian
# LOX IMVI melanoma = system: LOX IMVI melanoma
# SF-268 CNS = system: SF-268 CNS
smiles,measurement,setting,value
CC(C)(O)C1CCC(Nc2ccc3ncc(-c4cccc(C(F)(F)F)c4)n3n2)CC1 (stereo unspecified),GI50,MDA-MB-468 breast,1090 nM
same,TGI,MDA-MB-468 breast,2640 nM
same,GI50,OVCAR-4 ovarian,994 nM
same,TGI,OVCAR-4 ovarian,4820 nM
same,GI50,RXF 393 renal,202 nM
same,TGI,RXF 393 renal,616 nM
same,GI50,HT29 colon,1310 nM
same,TGI,HT29 colon,3050 nM
same,GI50,T-47D breast,540 nM
same,TGI,T-47D breast,2120 nM
same,GI50,RPMI-8226 leukemia,190 nM
same,TGI,RPMI-8226 leukemia,365 nM
same,GI50,HCT-15 colon,1120 nM
same,TGI,HCT-15 colon,2930 nM
same,GI50,HOP-92 NSCLC,670 nM
same,TGI,HOP-92 NSCLC,3130 nM
same,GI50,UO-31 renal,2120 nM
same,TGI,UO-31 renal,12400 nM
same,GI50,SNB-19 CNS,1900 nM
same,TGI,SNB-19 CNS,5500 nM
same,GI50,NCI/ADR-RES ovarian,1380 nM
same,TGI,NCI/ADR-RES ovarian,3300 nM
same,GI50,LOX IMVI melanoma,1400 nM
same,TGI,LOX IMVI melanoma,2780 nM
same,GI50,SF-268 CNS,1510 nM
same,TGI,SF-268 CNS,4440 nM
